In the experiment the target is Proto-oncogene Wnt-3 (Homo sapiens, UniProt P56703). The experiment can be described thus: Inhibition of Wnt3 expressed in mouse L-cells assessed as inhibition of Wnt/catanin signaling pathway by luciferase reporter gene assay.

The record followed here is BindingDB's records for doi:10.1016/j.bmcl.2009.04.040 (The University of Texas Southwestern Medical Center At …, 2009).

Where only a bound is given, the exact number is not on record here.

Sequence of Proto-oncogene Wnt-3 (P56703 whole entry): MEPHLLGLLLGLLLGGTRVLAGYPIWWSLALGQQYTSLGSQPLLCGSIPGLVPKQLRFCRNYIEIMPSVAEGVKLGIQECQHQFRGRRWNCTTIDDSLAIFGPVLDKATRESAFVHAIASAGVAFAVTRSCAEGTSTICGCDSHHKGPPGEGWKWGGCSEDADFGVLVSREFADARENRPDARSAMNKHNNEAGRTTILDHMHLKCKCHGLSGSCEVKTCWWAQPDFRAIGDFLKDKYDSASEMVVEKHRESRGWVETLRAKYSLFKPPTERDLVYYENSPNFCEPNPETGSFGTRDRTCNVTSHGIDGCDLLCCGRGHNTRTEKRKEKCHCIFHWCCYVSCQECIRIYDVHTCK

With `O=C(Nc1ccccc1Br)c1ccc(-n2c(O)c3c(c2O)[C@H]2C=C[C@@H]3C2)cc1` [N-(2-Bromo-phenyl)-4-((1R,2S,6R,7S)-3,5-dioxo-4-aza-tricyclo[5.2.1.0*2,6*]dec-8-en-4-yl)-benzamide], the 50% effective concentration (EC50) was > 25 µM.
The result for `O=C(Nc1ccccc1Cl)c1ccc(-n2c(O)c3c(c2O)[C@H]2C=C[C@@H]3C2)cc1` [N-(2-Chloro-phenyl)-4-((1R,2S,6R,7S)-3,5-dioxo-4-aza-tricyclo[5.2.1.0*2,6*]dec-8-en-4-yl)-benzamide] reads > 25 µM.
The result for `O=C(Nc1ccc(Br)c(Br)c1)c1ccc(-n2c(O)c3c(c2O)[C@H]2C=C[C@@H]3C2)cc1` [N-(3,4-Dibromo-phenyl)-4-((1R,2S,6R,7S)-dioxo-4-aza-tricyclo[5.2.1.0*2,6*]dec-8-en-4-yl)-benzamide] reads 10 µM; that for `O=C(Nc1ccc(Cl)c(Cl)c1)c1ccc(-n2c(O)c3c(c2O)[C@H]2C=C[C@@H]3C2)cc1` [N-(3,4-Dichloro-phenyl)-4-((1R,2S,6R,7S)-dioxo-4-aza-tricyclo[5.2.1.0*2,6*]dec-8-en-4-yl)-benzamide], 5 µM.
In the case of `O=C(Nc1ccc(F)c(F)c1)c1ccc(-n2c(O)c3c(c2O)[C@H]2C=C[C@@H]3C2)cc1` [N-(3,4-Difluoro-phenyl)-4-((1R,2S,6R,7S)-dioxo-4-aza-tricyclo[5.2.1.0*2,6*]dec-8-en-4-yl)-benzamide] it was 3 µM; in that of `O=C(Nc1cc(F)cc(F)c1)c1ccc(-n2c(O)c3c(c2O)[C@H]2C=C[C@@H]3C2)cc1` [N-(3,5-Difluoro-phenyl)-4-((1R,2S,6R,7S)-dioxo-4-aza-tricyclo[5.2.1.0*2,6*]dec-8-en-4-yl)-benzamide], > 25 µM; in that of `O=C(Nc1cccc(Br)c1)c1ccc(-n2c(O)c3c(c2O)[C@H]2C=C[C@@H]3C2)cc1` [N-(3-Bromo-phenyl)-4-((1R,2S,6R,7S)-3,5-dioxo-4-aza-tricyclo[5.2.1.0*2,6*]dec-8-en-4-yl)-benzamide], 9 µM.
On to `O=C(Nc1cccc(Cl)c1)c1ccc(-n2c(O)c3c(c2O)[C@H]2C=C[C@@H]3C2)cc1` [N-(3-Chloro-phenyl)-4-((1R,2S,6R,7S)-3,5-dioxo-4-aza-tricyclo[5.2.1.0*2,6*]dec-8-en-4-yl)-benzamide], for which the EC50 is > 25 µM.
The result for `O=C(Nc1ccc(Br)cc1)c1ccc(-n2c(O)c3c(c2O)[C@H]2C=C[C@@H]3C2)cc1` [N-(4-Bromo-phenyl)-4-((1R,2S,6R,7S)-3,5-dioxo-4-aza-tricyclo[5.2.1.0*2,6*]dec-8-en-4-yl)-benzamide] reads 1 µM.
As to `O=C(Nc1ccc(Cl)cc1)c1ccc(-n2c(O)c3c(c2O)[C@H]2C=C[C@@H]3C2)cc1` [N-(4-Chloro-phenyl)-4-((1R,2S,6R,7S)-3,5-dioxo-4-aza-tricyclo[5.2.1.0*2,6*]dec-8-en-4-yl)-benzamide], the half-maximal effective concentration (EC50) is 3 µM.
In the case of `O=C(NCc1ccccc1)c1ccc(-n2c(O)c3c(c2O)[C@H]2C=C[C@@H]3C2)cc1` [N-Benzyl-4-((1R,2S,6R,7S)-3,5-dioxo-4-aza-tricyclo[5.2.1.0*2,6*]dec-8-en-4-yl)-benzamide] it was 20 µM; in that of `O=C(NC1CCCCC1)c1ccc(-n2c(O)c3c(c2O)[C@H]2C=C[C@@H]3C2)cc1` [N-Cyclohexyl-4-((1R,2S,6R,7S)-3,5-dioxo-4-aza-tricyclo[5.2.1.0*2,6*]dec-8-en-4-yl)-benzamide], > 25 µM.
In the case of `CO[C@@H]1CCCC[C@H]1NC(=O)c1ccc(-n2c(O)c3c(c2O)[C@H]2C=C[C@@H]3C2)cc1` [trans-4-((1R,2S,6R,7S)-3,5-Dioxo-4-aza-tricyclo[5.2.1.0*2,6*]dec-8-en-4-yl)-N-(2-methoxy-cyclohexyl)-benzamide] it was 2 µM.
In the case of `O=C(N[C@H]1CCCC[C@@H]1O)c1ccc(-n2c(O)c3c(c2O)[C@H]2C=C[C@@H]3C2)cc1` [trans-4-((1R,2S,6R,7S)-3,5-Dioxo-4-aza-tricyclo[5.2.1.0*2,6*]dec-8-en-4-yl)-N-((2-hydroxy-cyclohexyl)-benzamide] it was > 25 µM.
